Non-standard residues stand in square brackets, D forms with d. Residues, ends and D or L forms follow the SMILES beside them. *: point of attachment. Acetyl(thymin-1-yl) = Cc1cn(CC(=O)*)c(=O)[nH]c1=O; Sar = CNCC(=O)O

As a reminder, the inhibition is how much of the control response was suppressed.

One data set concerns pepsin. Kind of data set: Protease stability assay, pepsin. It counts as in vitro ADME. Conditions: 100 mM formic acid buffer pH 2, 50 μM, 37°C; for stability towards pepsin: 24 h, RP-HPLC; for remaining at 24 h, 50 μM: RP-HPLC at 254 nm, triplicates, read-out: peptidomimetic intact after 24 h with pepsin. On the procedure:
(§1) Enzymes trypsin and pepsin are well-known to cleave the C-terminal of lysine and amide bond involving aromatic amino acids, respectively. Peptides were incubated with both the enzymes at 37°C for 24 h, and the amount of the residual intact peptide was monitored in each case at different time points (0, 3, 6, 12 and 24 h) using RP-HPLC. […] Overall, the stability assays with blood plasma and proteolytic enzymes led to similar conclusions and confirmed the stability, order P5>P4≫P3≈P2>P1.
(§2) Preliminary stability assays were performed using the enzymes pepsin and trypsin. For all assays, peptides were incubated with the enzyme at 37°C for 24 h. All digestion assay data were analyzed by RP-HPLC. Trypsin and pepsin stocks were prepared in 100 mM ammonium bicarbonate (NH4HCO3) buffer (pH 8) and 100 mM formic acid buffer (pH 2), respectively. All the peptides/peptidomimetics (P1, P2, P3, P4 and P5) were incubated with trypsin and pepsin enzymes in 100 mM NH4HCO3 buffer (pH 8) and formic acid buffer (pH 2), respectively, at 37°C. The trypsin reactions were halted with 0.05% formic acid, and the pepsin reactions were halted with 100 mM NH4HCO3. Then the samples were analyzed by RP-HPLC using a linear gradient of solvent B (0.3 mL/min flow rate); similar data points were collected at various time points between 0 and 24 h (1 h, 3 h, 6 h, 12 h and 24 h) during incubation and analyzed in triplicates. The percentages of recovered peptide/peptidomimetics were detected by integration at 254 nm[46].
(§3) Figure S6. Stability towards protease enzymes pepsin and trypsin. P1, P2, P3, P4 and P5 ([…]) were incubated in with enzymes pepsin a and trypsin b in 100 mM formic acid buffer (pH 2) and 100 mM NH4HCO3 buffer (pH 8) respectively. Percentage of intact peptide in each case was monitored at different time points for a duration of 24 h. P1, P2 and P3 degraded with time, […]
(§4) (1 picture or pasted object on this page, not shown here)

In data set [1] the target is T1, Aβ42 (Homo sapiens, UniProt P05067).
T1 construct: Aβ42 peptide (0.25 mg) (Calbiochem, Merck) was dissolved in hexafluoro-2-propanol; purchased Calbiochem, Merck
The experiment in a line: CD measurement, inhibition assay (β-sheet band at 218 nm). It counts as biochemical. The note with it: read-out: reduction in CD intensity at 218 nm (β-sheet content), inhibition assay. The source says:
To further validate our results, we performed CD studies. Aβ42 aggregates are predominantly made of β-sheet assembly, which can be assessed by CD measurements. […] In this assay, we monitored the intensity of negative CD band centered at 218 nm, characteristic of a β-sheet structure and a decrease in its intensity was correlated with a reduction in the toxic Aβ42 aggregates (supplementary Fig. S2). In these CD measurements, samples similar to ThT fluorescence assays were used to allow for direct comparison between the two experiments. In the case of inhibition assay, Aβ42 monomers were incubated with inhibitor candidates for 4 days at 37°C and then CD measurements were performed to evaluate the inhibition efficiency. […] In the reversal assay, Aβ42 aggregates were incubated with the inhibitor candidates for six days at 37°C and then, CD measurements were performed. CD data was in excellent agreement with the dissolution efficiency obtained in reversal assay experiments monitored by the ThT assay (Fig. 2). […] Overall, inhibition and dissolution efficiencies obtained in the ThT fluorescence assay and CD measurements were in good agreement.
The circular dichroic (CD) spectra were recorded using a Jasco J-815 spectrometer under nitrogen atmosphere. Peptides were dissolved in 10 mM PBS buffer at pH 7.4 at concentrations of 20 µM. A 10 mm path length was used for the measurements. Four to five scans were acquired from 200 to 300 nm.
(§5) Prior to the experiment, P1, P2, P3, P4 and P5 were dissolved in HFIP and were evaporated under a stream of dry nitrogen. The dried samples were re-suspended in 10 mM PBS buffer at pH 7.4. An aliquot of Aβ42 peptide was then added to the solution with or without one of the inhibitor P1, P2, P3, P4 and P5. The mixtures were vortexed for approximately 30 s and then incubated at 37°C for 2–3 days without shaking. The final concentration of Aβ42 in the mixture was 20 μΜ. For a dissolution experiment, Aβ42 was incubated alone for 2 days to allow fibrils to form. An aliquot of the formed fibrils in 10 mM PBS buffer was then added to the inhibitor peptidomimetics. The amount of fibrils remaining intact was assayed using that fluorescence, CD measurements and transmission electron microscopy as described below.

The target of data set [2] is T1, Aβ42. The experiment in a line: ThT fluorescence inhibition assay of Aβ42 fibrillization. It counts as biochemical. Conditions: for growth phase of Aβ42 fibrillization, time-dependent ThT assay / inhibition efficiency, time-dependent ThT assay: 1:2, 37°C, n = 3; for growth phase of Aβ42 fibrillization, time-dependent ThT assay: normalized fluorescence at 485 nm. The protocol: ThT assay has been widely used to monitor the transformation of Aβ42 monomers to fibrillar aggregates. We employed ThT assay to evaluate the ability of our peptidomimetic candidates to either prevent fibril assembly (inhibition) or to break down preformed fibrils of Aβ42 (dissolution). For the inhibition assay all the peptidomimetics (P2, P3, P4 and P5) along with control peptide P1 were added at 0 h of the experiment, whereas for the aggregates reversal (dissolution) assay they were added to Aβ42 fibrillar aggregates grown for 2 days. Once they had been incubated together, Aβ42/inhibitors were analyzed using ThT by measuring the fluorescence changes. First, we performed concentration-dependent experiments where different ratios of P1, P2, P3, P4 and P5 were incubated with fixed concentrations of Aβ42 (20 μM) and its aggregates to study their effect on both inhibition and reversal assay, respectively. Experiments were performed at stoichiometric ratios (Aβ42/inhibitor) of 1:0.2, 1:1, and 1:2 with the fixed concentration of Aβ42 of 20 μM. […] However, the efficiencies of P4 and P5 were only marginally better in inhibition assay compared to reversal assay with a difference of about 15%.
Fluorescence spectral measurements were carried out using Perkin Elmer Model LS 55 fluorescence spectrophotometer. […] A ThT concentration of 5–10 µM was used for amyloid fibrillization and dissolution assay based on the Aβ42 fibrillar concentration.
as §5

The next data set concerns trypsin. Kind of data set: Protease stability assay, trypsin. Format: in vitro ADME. The note with it: 100 mM NH4HCO3 buffer pH 8, 50 μM, 37°C; for stability towards trypsin: 24 h, RP-HPLC; for remaining at 24 h, 50 μM: RP-HPLC at 254 nm, triplicates, read-out: peptidomimetic intact after 24 h with trypsin. On the procedure:
as §1, §2, §3, §4

The mark [3] stands for this setting: Aβ42 20 μM, inhibitor 40 μM, 4 days at 37°C, vs untreated Aβ42.
Setting [4] is: Aβ42 20 μM, Aβ42:inhibitor 1:2 (40 μM), inhibitor added at 0 h, four days at 37°C, 10 mM PBS pH 7.4, n = 3, read-out: inhibition efficiency (reduction in the fluorescence intensity of ThT).

T1 sequence (P05067 672-713 limits assumed): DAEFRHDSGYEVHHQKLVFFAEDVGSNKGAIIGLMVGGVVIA

For `CC(C)C[C@H](NC(=O)[C@H](CCCCN)NC(=O)CC1C(=O)NC(=O)NC1=O)C(=O)N[C@H](C(=O)N[C@@H](Cc1ccccc1)C(=O)N[C@@H](Cc1ccccc1)C(N)=O)C(C)C` [P3], the “stability towards pepsin” value in the data set on pepsin is “less stable”. In addition, the inhibition at 40 µM on Aβ42 [1] was around 30%; at Aβ42 [2] (pH 7.4, read-out: inhibition efficiency (reduction in the fluorescence intensity of ThT)), 40%. On Aβ42 [2] (Aβ42 20 μM), the “growth phase of Aβ42 fibrillization, time-dependent ThT assay” value is below 60%. Further, the “stability towards trypsin” value with trypsin is recorded as “less stable”.

On to `Cc1cn(CC(=O)N[C@@H](CCCCN)C(=O)N[C@@H](CC(C)C)C(=O)N[C@H](C(=O)N[C@@H](Cc2ccccc2)C(=O)N[C@@H](Cc2ccccc2)C(N)=O)C(C)C)c(=O)[nH]c1=O` [P2], for which the “stability towards pepsin” value with pepsin was “less stable”. For the same compound, the inhibition at 40 µM at Aβ42 [1] (setting [3]) was above 50%; at Aβ42 [2] (setting [4]), 55%. For the same compound, the “growth phase of Aβ42 fibrillization, time-dependent ThT assay” value at Aβ42 [2] (Aβ42 20 μM) is recorded as below 60%. In addition, the “stability towards trypsin” value with trypsin is recorded as “less stable”.

`Cc1cn(CC(=O)N(C)CC(=O)N[C@@H](CC(C)C)C(=O)N(C)CC(=O)N[C@@H](Cc2ccccc2)C(=O)N(C)CC(=O)N[C@@H](C)C(N)=O)c(=O)[nH]c1=O` [P4] ({Acetyl(thymin-1-yl)}-[Sar]L[Sar]F[Sar]A-NH2): the remaining at 24 h, 50 μM in the data set on pepsin and in the data set with trypsin was above 90% each time. Besides, the values for the inhibition at 40 µM on Aβ42 [1] (setting [3]) and at Aβ42 [2] (setting [4]) were above 80% and at most 95%, respectively. On Aβ42 [2] (Aβ42 20 μM), the “inhibition efficiency, time-dependent ThT assay” value was above 90%.

For `Cc1cn(CC(=O)N[C@@H](CCCCN)C(=O)N(C)CC(=O)N[C@H](C(=O)N(C)CC(=O)N[C@@H](Cc2ccccc2)C(=O)N(C)CC(N)=O)C(C)C)c(=O)[nH]c1=O` [P5] ({Acetyl(thymin-1-yl)}-K[Sar]V[Sar]F[Sar]-NH2), the remaining at 24 h, 50 μM in the data set on pepsin and in the data set on trypsin was above 90% in each case. In addition, the inhibition at 40 µM was above 80% at Aβ42 [1] (setting [3]) and at most 95% at Aβ42 [2] (setting [4]). Further, the “inhibition efficiency, time-dependent ThT assay” value at Aβ42 [2] (Aβ42 20 μM) is above 90%.

The values above are taken from PMC4311240, “Rationally Designed Peptidomimetic Modulators of Aβ Toxicity in Alzheimer's Disease” (Scientific Reports, 2015).
